PubChem BioAssay (NCI)
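Grown in 96-well plates, cells were treated for 48 hours with each compound at five concentrations. Insufficient inhibition: endpoint recorded as highest concentration tested. The concentration for 50% growth inhibition is given as GI50. Definition used: TGI = concentration required for complete inhibition of growth.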

What was measured:
Assay in all cases: NCI-60 cell line screen, 48 h; in the data active means GI50 below about 0.43 µM; inactive means the rest
KM12 colon = test system: KM12 colon
A549 NSCLC = test system: A549 NSCLC
T-47D breast = test system: T-47D breast
DU-145 prostate = test system: DU-145 prostate
UO-31 renal = test system: UO-31 renal
HT29 colon = test system: HT29 colon
UACC-62 melanoma = test system: UACC-62 melanoma
SF-295 CNS = test system: SF-295 CNS
NCI-H522 lung = test system: NCI-H522 lung
COLO 205 colon = test system: COLO 205 colon
NCI-H460 lung = test system: NCI-H460 lung
SW-620 colon = test system: SW-620 colon
RPMI-8226 leukemia = test system: RPMI-8226 leukemia
CAKI-1 renal = test system: CAKI-1 renal
SNB-75 CNS = test system: SNB-75 CNS
SK-MEL-5 melanoma = test system: SK-MEL-5 melanoma
RXF 393 renal = test system: RXF 393 renal
SNB-19 CNS = test system: SNB-19 CNS
NCI-H226 lung = test system: NCI-H226 lung
SR leukemia = test system: SR leukemia
MDA-MB-435 = test system: MDA-MB-435
MDA-MB-231 breast = test system: MDA-MB-231 breast
HS 578T breast = test system: HS 578T breast
SF-268 CNS = test system: SF-268 CNS
OVCAR-4 ovarian = test system: OVCAR-4 ovarian
MALME-3M melanoma = test system: MALME-3M melanoma
SK-MEL-28 melanoma = test system: SK-MEL-28 melanoma
HOP-92 NSCLC = test system: HOP-92 NSCLC
OVCAR-3 ovarian = test system: OVCAR-3 ovarian
NCI-H23 lung = test system: NCI-H23 lung
IGROV1 ovarian = test system: IGROV1 ovarian
HCT-116 colon = test system: HCT-116 colon
786-0 renal = test system: 786-0 renal
EKVX NSCLC = test system: EKVX NSCLC
ACHN renal = test system: ACHN renal
HCC-2998 colon = test system: HCC-2998 colon
HCT-15 colon = test system: HCT-15 colon
BT-549 breast = test system: BT-549 breast
LOX IMVI melanoma = test system: LOX IMVI melanoma
PC-3 prostate = test system: PC-3 prostate
UACC-257 melanoma = test system: UACC-257 melanoma
SF-539 CNS = test system: SF-539 CNS
NCI/ADR-RES ovarian = test system: NCI/ADR-RES ovarian
HOP-62 NSCLC = test system: HOP-62 NSCLC
TK-10 renal = test system: TK-10 renal
MOLT-4 leukemia = test system: MOLT-4 leukemia
OVCAR-5 ovarian = test system: OVCAR-5 ovarian
U251 CNS = test system: U251 CNS
SK-OV-3 ovarian = test system: SK-OV-3 ovarian
A498 renal = test system: A498 renal
MCF7 breast = test system: MCF7 breast
SK-MEL-2 melanoma = test system: SK-MEL-2 melanoma
OVCAR-8 ovarian = test system: OVCAR-8 ovarian
CCRF-CEM leukemia = test system: CCRF-CEM leukemia
SN12C renal = test system: SN12C renal
K-562 leukemia = test system: K-562 leukemia

COc1ccc(-c2cc(-c3cccn3C)c(C#N)c(=O)[nH]2)cc1OC
active: GI50 (HOP-92 NSCLC) 0.0508 µM
inactive: GI50 (KM12 colon) > 100 µM | GI50 (A549 NSCLC) > 100 µM | GI50 (T-47D breast) 34.7 µM | GI50 (DU-145 prostate) > 100 µM | GI50 (UO-31 renal) 85.1 µM | GI50 (HT29 colon) > 100 µM | GI50 (UACC-62 melanoma) 65.5 µM | GI50 (SF-295 CNS) > 100 µM | GI50 (NCI-H522 lung) > 100 µM | GI50 (COLO 205 colon) > 100 µM | GI50 (NCI-H460 lung) > 100 µM | GI50 (SW-620 colon) > 100 µM | GI50 (RPMI-8226 leukemia) > 100 µM | GI50 (CAKI-1 renal) > 100 µM | GI50 (SNB-75 CNS) 24.2 µM | GI50 (SK-MEL-5 melanoma) > 100 µM | GI50 (RXF 393 renal) > 100 µM | GI50 (SNB-19 CNS) > 100 µM | GI50 (NCI-H226 lung) > 100 µM | GI50 (SR leukemia) 0.483 µM | GI50 (MDA-MB-435) > 100 µM | GI50 (MDA-MB-231 breast) > 100 µM | GI50 (HS 578T breast) > 100 µM | GI50 (SF-268 CNS) > 100 µM | GI50 (OVCAR-4 ovarian) > 100 µM | GI50 (MALME-3M melanoma) > 100 µM | GI50 (SK-MEL-28 melanoma) > 100 µM | GI50 (OVCAR-3 ovarian) > 100 µM | GI50 (NCI-H23 lung) > 100 µM | GI50 (IGROV1 ovarian) 91.7 µM | GI50 (HCT-116 colon) > 100 µM | GI50 (786-0 renal) > 100 µM | GI50 (EKVX NSCLC) 30.7 µM | GI50 (ACHN renal) > 100 µM | GI50 (HCC-2998 colon) 88.7 µM | GI50 (HCT-15 colon) > 100 µM | GI50 (BT-549 breast) > 100 µM | GI50 (LOX IMVI melanoma) > 100 µM | GI50 (PC-3 prostate) > 100 µM | GI50 (UACC-257 melanoma) > 100 µM | GI50 (SF-539 CNS) 66.8 µM | GI50 (NCI/ADR-RES ovarian) > 100 µM | GI50 (HOP-62 NSCLC) > 100 µM | GI50 (TK-10 renal) > 100 µM | GI50 (MOLT-4 leukemia) 22.7 µM | GI50 (OVCAR-5 ovarian) > 100 µM | GI50 (U251 CNS) > 100 µM | GI50 (SK-OV-3 ovarian) > 100 µM | GI50 (A498 renal) 56.6 µM | GI50 (MCF7 breast) > 100 µM | GI50 (SK-MEL-2 melanoma) > 100 µM | GI50 (OVCAR-8 ovarian) > 100 µM | GI50 (CCRF-CEM leukemia) 5.02 µM | GI50 (SN12C renal) > 100 µM | GI50 (K-562 leukemia) > 100 µM
> 100 µM: TGI (KM12 colon) | TGI (A549 NSCLC) | TGI (T-47D breast) | TGI (DU-145 prostate) | TGI (UO-31 renal) | TGI (HT29 colon) | TGI (UACC-62 melanoma) | TGI (SF-295 CNS) | TGI (NCI-H522 lung) | TGI (COLO 205 colon) | TGI (NCI-H460 lung) | TGI (SW-620 colon) | TGI (RPMI-8226 leukemia) | TGI (CAKI-1 renal) | TGI (SNB-75 CNS) | TGI (SK-MEL-5 melanoma) | TGI (RXF 393 renal) | TGI (SNB-19 CNS) | TGI (NCI-H226 lung) | TGI (SR leukemia) | TGI (MDA-MB-435) | TGI (MDA-MB-231 breast) | TGI (HS 578T breast) | TGI (SF-268 CNS) | TGI (OVCAR-4 ovarian) | TGI (MALME-3M melanoma) | TGI (SK-MEL-28 melanoma) | TGI (OVCAR-3 ovarian) | TGI (NCI-H23 lung) | TGI (IGROV1 ovarian) | TGI (HCT-116 colon) | TGI (786-0 renal) | TGI (EKVX NSCLC) | TGI (ACHN renal) | TGI (HCC-2998 colon) | TGI (HCT-15 colon) | TGI (BT-549 breast) | TGI (LOX IMVI melanoma) | TGI (PC-3 prostate) | TGI (UACC-257 melanoma) | TGI (SF-539 CNS) | TGI (NCI/ADR-RES ovarian) | TGI (HOP-62 NSCLC) | TGI (TK-10 renal) | TGI (MOLT-4 leukemia) | TGI (OVCAR-5 ovarian) | TGI (U251 CNS) | TGI (SK-OV-3 ovarian) | TGI (A498 renal) | TGI (MCF7 breast) | TGI (SK-MEL-2 melanoma) | TGI (OVCAR-8 ovarian) | TGI (CCRF-CEM leukemia) | TGI (SN12C renal) | TGI (K-562 leukemia)
9.8 µM: TGI (HOP-92 NSCLC)
